Measured values: PMC10526672, “A genome-wide CRISPR/Cas9 screen identifies DNA-PK as a sensitiser to ^177Lutetium-DOTA-octreotate radionuclide therapy” (Theranostics, 2023)

How the values were obtained:
[1] = system: H1299-7 cells; experiment: LuTate retention assay; format: cell-based, human; conditions: H1299-7 control cells, 4 h treatment with 5 MBq/mL LuTate then 24 h in fresh medium, gamma counter, biological triplicates
Description: (§1) H1299-7, H1299-7 Cas9, MVP KO and Beta-Arrestin 2 KO cells were treated with either 0 or 5 MBq/mL LuTate using the same suspension protocol as for the growth experiments. After 4 h of treatment, cells were washed and triplicate aliquots collected for the 4 h timepoint, and the remaining cells plated in triplicate in 6 well plates for 24 h. For collection of samples, cells were spun down, washed twice, and resuspended in 500 μl PBS. All experiments were repeated as biological triplicates. Samples were stored at RT for 2-3 half-lives of LuTate (2-3 weeks), before being counted on the Captus 4000e gamma counter (Capintec). Percent LuTate retained by the cells was calculated as a percent of total activity added and averaged across the triplicate experiments.

[2] = system: H1299-7 MVP KO cells; experiment: LuTate retention assay; format: cell-based, human; conditions: 5 MBq/mL LuTate for 4 h
Description: as §1

[3] = system: H1299-7 Beta-Arrestin 2 KO cells; experiment: LuTate retention assay; format: cell-based, human; conditions: 4 h treatment with 5 MBq/mL LuTate then 24 h in fresh medium, gamma counter, biological triplicates, p-value 0.01 vs control
Description: as §1

[4] = system: H1299-7 DNA-PK KO cells; experiment: Cell growth assay over 14 days; format: cell-based, human
Description: (§2) Two gRNA (from the Brunello library, as determined in the MaGeCK count files) with the most significant enrichment or depletion for the genes to be validated, were pooled and nucleofected into H1299-7 Cas9 cells, using the Amaxa 4D nucleofector (Lonza), solution SF and program EW-127 (Lonza, optimised protocol for H1299 cells). Cells were nucleofected with 75 pmol of each gRNA in 20 μl (gRNA from Integrated DNA Technologies, sequences in supplementary Table 2). Efficiency of gene knockout was determined at 72 h post nucleofection through western blot or DNA sequencing. The resulting cell lines were H1299-7 Beta-Arrestin 2 knockout (KO), MVP KO, Artemis KO, and DNA-PK KO.
(§3) For LuTate treatment, aliquots of 4 × 10^6 cells were collected and resuspended in 500 μl DMEM + 1% FCS, and treated with either 0, 5, 10 or 20 MBq/mL LuTate for 4 h in suspension at 37°C and 5% CO2 with mixing every hour. Cells were resuspended in 4 mL full media and plated in 6 well plates at a concentration of 0.5 × 10^6 cells per well. For drug combination experiments, 24 h post LuTate treatment, cells were treated with either 0.5 μM or 1 μM of either AZD-7648 or nedisertib.
(§4) Cell growth was tracked over a 14-day period. Cells were counted and replated at 0.2 × 10^6 cells per well on Days 2, 6 and 9, with a final count on Day 14. Because of the exponential growth or significant lethality of the various cultures, not all cells were necessarily re-seeded at each subculture interval. However, the cell growth assay data is corrected for the fraction of cells re-plated so the data is expressed for all conditions as though all cells were re-plated at each interval (illustrated in Supplementary Figure S1). The total number of cells is thus the theoretical total number of cells over time if all cells at each subculture interval were re-seeded at identical density, calculated by: […]
(§5) Cell growth was normalised to the appropriate control for each experiment. For growth curves showing validation of the CRISPR result, results were graphed showing the alteration in cell population, as compared to control, over time (out to Day 14). For all other assays (combination experiments, and experiments using AR42J or SKNBE-2 cells), results are shown comparing cell population at the Day 14 timepoint. All assays were repeated as at least biological triplicates.

[5] = system: H1299-7 MVP KO cells; experiment: Cell growth assay over 14 days; format: cell-based, human; conditions: 5 MBq/mL LuTate
Description: as §2, §3, §4, §5

[6] = system: H1299-7 Artemis KO cells; experiment: Cell growth assay over 14 days; format: cell-based, human
Description: as §2, §3, §4, §5

[7] = system: H1299-7 Beta-Arrestin 2 KO cells; experiment: Cell growth assay over 14 days; format: cell-based, human
Description: as §2, §3, §4, §5

[8] = system: AR42J tumours; experiment: AR42J xenograft in BALB/c nude mice; format: in vivo, mouse
Description: (§6) All animal experiments were performed with approval from the Peter MacCallum Cancer Centre Animal Experimentation Ethics Committee, and in accordance with the Australian code for the care and use of animals for scientific purposes (8th Edition, 2013). Four- to seven-week-old female BALB/c nude mice were sourced from Animal Resources Centre (Canning Vale, Western Australia). 3 × 10^6 AR42J or 5 × 10^6 H1299-7 cells were subcutaneously implanted onto the right flank of the mice in a 50% Matrigel (Corning):PBS mixture. Mice were weighed, and tumours measured twice weekly using electronic calipers. Tumour volume (mm^3) was calculated as length × width × height × π/6. Once tumours reached a volume of 50-300 mm^3, the animals were randomised into groups of 9-10 mice and injected intravenously with a single dose (5-10 MBq in 100-200 μL) LuTate or vehicle (saline). At 24 h post LuTate injection mice began once-daily oral dosing of DNA-PK inhibitor nedisertib (150 mg/kg) or vehicle (10% DMSO, 40% PEG300, 5% Tween-80, 45% saline) in a volume of 10 ml/kg for 6 consecutive days. Mice were monitored 2-3 times weekly for overall weight as an indicator of murine health and tumour volume measured. Mice were euthanised once the tumour volume exceeded 1200 mm^3.

[9] = system: H1299-7 xenografts; experiment: H1299-7 xenograft in BALB/c nude mice; format: in vivo; conditions: single agent: 6 MBq LuTate single iv dose, or nedisertib 150 mg/kg oral for 6 days
Description: as §6

[10] = system: H1299-7 cells; experiment: Cell growth assay over 14 days, LuTate alone or with DNA-PK inhibitor; format: cell-based, human; conditions: parental H1299-7 cells, 20 MBq/mL LuTate
From the text: Total Cells = Cell Number counted (1 well) × Number of Wells required
Number of Wells required going forward = Total Cells/0.2 × 10^6
Cell growth was normalised to the appropriate control for each experiment. […] All assays were repeated as at least biological triplicates.

[11] = system: SKNBE-2 cells; experiment: Cell growth assay, Day 14; format: cell-based, human
Description: as §3, §4
Cell growth was normalised to the appropriate control for each experiment. […]

[12] = system: unselected tumours; conditions: phase I clinical trial, cited from earlier work
From the text: To this end, several clinical trials are evaluating the tolerability and efficacy of nedisertib in humans. […] Current clinical trials are focusing on the combination of nedisertib and radiotherapy in the setting of pancreatic cancers (NCT04172532) and glioblastoma and gliosarcoma (NCT04555577), as well as others. Additionally, there are two studies investigating the combination ...

| SMILES | LuTate retained (percent of total activity added) [1] | amount of LuTate retained versus control cells [2] | LuTate retained (percent of total activity added) [3] | times more sensitive to LuTate than control cells ([4]; 5 MBq/mL LuTate, Day 14, p value 0.0017) | cell population by Day 14 ([4]; 10 MBq/mL LuTate) | increase in relative growth versus parental H1299-7 cells [5] | times more sensitive to LuTate than control cells ([6]; 5 MBq/mL LuTate, Day 14, p value 0.0021) | cell population by Day 14 ([6]; 10 MBq/mL LuTate) | relative growth (% of control) at Day 14 ([6]; 10 MBq/mL LuTate for 4 h in suspension) | relative growth (% of control) at Day 14 ([6]; 20 MBq/mL LuTate for 4 h) | increase in relative growth versus parental H1299-7 cells ([7]; 5 MBq/mL LuTate) | increase in survival versus parental H1299-7 cells ([7]; 10 MBq/mL LuTate, p-value 0.015) | tumour control post the end of treatment ([8]; AR42J tumours, 9 MBq LuTate single dose with or without 6 days nedisertib 150 mg/kg, 9-10 mice per group) | median survival ([8]; AR42J xenograft mice, 9 MBq LuTate with or without nedisertib 150 mg/kg for 6 days, vehicle control 10 days, p-value 0.0001) | impact on tumour growth or survival compared to untreated controls [9] | survival (expansion of parental cells) [10] | reduction of survival ([11]; 20 MBq/mL LuTate alone, Day 14) | effect on cell survival ([11]; LuTate doses of less than 10 MBq/mL) | efficacy in humans ([12]; unselected tumours) | tolerability in humans [12] |
| --- | --- | --- | --- | --- | --- | --- | --- | --- | --- | --- | --- | --- | --- | --- | --- | --- | --- | --- | --- | --- |
| C[C@@H](O)[C@H](NC(=O)[C@@H]1CSSC[C@H](NC(=O)[C@@H](Cc2ccccc2)NC(=O)CN2CCN(CC(=O)[O-])CCN(CC(=O)[O-])CCN(CC(=O)[O-])CC2)C(=O)N[C@@H](Cc2ccc(O)cc2)C(=O)N[C@H](Cc2c[nH]c3ccccc23)C(=O)N[C@@H](CCCCN)C(=O)N[C@@H]([C@@H](C)O)C(=O)N1)C(=O)O.[177Lu+3] [LuTate, ^177Lutetium-DOTA-octreotate] | 32% | no alteration | 14.5% | 10 times | almost completely eradicated | two-fold | 20 times | almost completely eradicated | 0.0038% | 0.000296% | two-fold | four-fold | 10 days | 28 days | no impact | < 0.1% | 50% | little effect | – | – |
| COc1ccc([C@@H](O)c2cc(-c3ncnc4cc(N5CCOCC5)ccc34)c(F)cc2Cl)nn1 [nedisertib] | – | – | – | – | – | – | – | – | – | – | – | – | – | – | no impact | – | – | – | modest efficacy | well tolerated |
